Measurements: PubChem BioAssay (NCI)
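Test compounds were applied to cells in 96-well plates for 48 hours at 5 doses. TGI: concentration producing complete growth inhibition.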

What was measured:
Experiment in all cases: inhibition of tumour cell growth, NCI panel, 48 h
SNB-78 CNS = test system: SNB-78 CNS
XF 498 CNS = test system: XF 498 CNS
DLD-1 colon = test system: DLD-1 colon
M19-MEL melanoma = test system: M19-MEL melanoma
LXFL 529 NSCLC = test system: LXFL 529 NSCLC

SMILES	TGI (SNB-78 CNS) [µM]	TGI (XF 498 CNS) [µM]	TGI (DLD-1 colon) [µM]	TGI (M19-MEL melanoma) [µM]	TGI (LXFL 529 NSCLC) [µM]
CCOC(=O)C(=O)NCCCN1CCOCC1	> 100	> 100	> 100	> 100	> 100
COc1ccc(C2c3cc4c(cc3OC(O)(CO)C2C(=O)O)OCO4)cc1 (stereo not given) (tested in a mixture with another compound)	59	16.6	54.9	21.3	31.1
CC(=O)Oc1ccc(CO)cc1OC(C)=O	> 100	> 100	> 100	> 100	> 100
COC1CC(CC2CCC(C)C(C(C)C(=O)O)O2)OC2(OC(C)(C3CCC(C)(C4OC(C5OC(O)(CO)C(C)CC5C)CC4C)O3)CC2C)C1C (stereo not given)	68.3	1.01	14.1	2.18	4.02
